This is an account of results in patent US12551573B2, “Compositions and methods for the targeting of PCSK9” (Scribe Therapeutics Inc., priority 2022, dated 2026).

The test system of this series is human PCSK9 locus. Kind of series: Secreted PCSK9 by ELISA (normalized to total cell count) in Huh7 cells transfected with mRNA and gRNA. Conditions: paired with LTRP5-ADD-ZIM3 mRNA; for Secreted PCSK9 / Percent reduction in PCSK9 secretion / Average percent reduction in PCSK9 secretion: Huh7 cells, 6 days post-transfection; for Secreted PCSK9: normalized to total cell count; for Percent reduction in PCSK9 secretion: relative to non-targeting gRNA control; for Average percent reduction in PCSK9 secretion: averaged from the two doses. The series is classed as cell-based. The method, then: To assess PCSK9 secretion, seeded Huh7 cells were transfected with mRNA encoding a catalytically-active CasX 676, dXR1, or LTRP5-ADD-ZIM3 and a gRNA with scaffold 316 and spacer targeting either the B2M or PCSK9 locus. Media supernatant was harvested at 6, 18, 36, and 87 days post-transfection to assess level of PCSK9 secretion by ELISA. Levels of PCSK9 secretion were normalized to total cell count. As an additional control, PCSK9 secretion was also measured in the media supernatant harvested from wells containing untreated, naïve cells.
The following three human hepatocyte cancer cell lines were used in this experiment: HepG2 cells, Hep3B cells, and Huh7 cells. ˜15,000 cells of each cell line were seeded per well; the next day, seeded cells were transfected with mRNA encoding a catalytically-active CasX 676, dXR1, or LTRP5-ADD-ZIM3 and a gRNA with scaffold 316 and spacer targeting either the B2M or PCSK9 locus (see Table 23 for specific spacers and sequences). Media supernatant was harvested at 4 days post-transfection to assess level of PCSK9 secretion by ELISA, and levels of PCSK9 secretion were normalized to total cell count and illustrated in FIGS. 11A-11C. Culturing of treated Huh7 cells continued, and media supernatant was harvested at 14 and 27 days post-transfection for measuring PCSK9 secretion by ELISA. As an additional experimental control, PCSK9 secretion was also measured in the media supernatant harvested from wells containing untreated, naïve cells.
To assess PCSK9 secretion, seeded Huh7 cells were co-transfected with mRNA encoding for LTRP5-ADD-ZIM3 and a gRNA with scaffold 316 and spacer targeting the PCSK9 locus using Lipofectamine™ 3000. Two doses of total RNA input at a 2:1 mass ratio of mRNA to gRNA were used for screening: 50 ng mRNA: 25 ng gRNA and 25 ng mRNA: 12.5 ng gRNA. Media supernatant was harvested at 6 days post-transfection to assess level of PCSK9 secretion by ELISA (Table 74). Levels of PCSK9 secretion were normalized to total cell count. As an additional control, PCSK9 secretion was also measured in the media supernatant harvested from cells transfected with mRNA encoding for mScarlet.
On the technique in general: In an ELISA, binding on a coated surface is turned into a signal by an enzyme label.

Turning to “GGAAAGCUGAGCUUGUGCCU (listed as RNA, chemistry not given here) [spacer 6.135, Promoter]”, the “Average percent reduction in PCSK9 secretion” value (“Average percent reduction” for short) is reported as 53.12%. In addition, under “25 ng mRNA:12.5 ng gRNA”, the “Secreted PCSK9” value stood at 44.59 ng/mL and the “Percent reduction in PCSK9 secretion” value is 37.42%. Further, under “50 ng mRNA:25 ng gRNA”, the “Secreted PCSK9” value was determined as 25.66 ng/mL and the “Percent reduction in PCSK9 secretion” value worked out at 68.82%.
For “GGAAGGGCUGUCGAUACUGG (listed as RNA, chemistry not given here) [spacer 6.121, Promoter]”, the “Average percent reduction” value was 56.73%. Besides, for the setting “25 ng mRNA:12.5 ng gRNA”, the “Secreted PCSK9” value is recorded as 37.13 ng/mL and the “Percent reduction in PCSK9 secretion” value is reported as 47.89%. For the same substance, where the note is “50 ng mRNA:25 ng gRNA”, the “Secreted PCSK9” value was determined as 28.33 ng/mL and the “Percent reduction in PCSK9 secretion” value turned out to be 65.57%.
With “GGAGCAGGGCGCGUGAAGGG (listed as RNA, chemistry not given here) [spacer 6.158, Exon 1]”, the “Average percent reduction” value came to 72.03%. Also, under “25 ng mRNA:12.5 ng gRNA”, the “Secreted PCSK9” value was 31.72 ng/mL and the “Percent reduction in PCSK9 secretion” value is given as 55.48%. Besides, where the note is “50 ng mRNA:25 ng gRNA”, the “Secreted PCSK9” value is recorded as 9.39 ng/mL and the “Percent reduction in PCSK9 secretion” value is on record as 88.59%.
Turning to “GGGUCUGAGCCUGGAGGAGU (listed as RNA, chemistry not given here) [spacer 6.157, Exon 1]”, the “Average percent reduction” value is given as 69.78%. Besides, where the note is “25 ng mRNA:12.5 ng gRNA”, the “Secreted PCSK9” value came to 32.4 ng/mL and the “Percent reduction in PCSK9 secretion” value was 54.53%. Also, for the setting “50 ng mRNA:25 ng gRNA”, the “Secreted PCSK9” value is listed as 12.32 ng/mL and the “Percent reduction in PCSK9 secretion” value is reported as 85.03%. In addition, the “repression of PCSK9 secretion by spacer” value (Huh7, scaffold 316, days 4, 14, 27) is “most effective repression of PCSK9 secretion”.
“GUGCUCGGGUGCUUCGGCCA (listed as RNA, chemistry not given here) [spacer 6.5, Exon 1]”: the “Average percent reduction” value turned out to be 5.64%. Also, under “25 ng mRNA:12.5 ng gRNA”, the “Secreted PCSK9” value is given as 76.37 ng/mL and the “Percent reduction in PCSK9 secretion” value stood at 7.19%. Moreover, under “50 ng mRNA:25 ng gRNA”, the “Secreted PCSK9” value is given as 67.08 ng/mL and the “Percent reduction in PCSK9 secretion” value was 18.47%.
For the substance “GUGGGAAGGUUCGCGGGGUU (listed as RNA, chemistry not given here) [spacer 6.168, Intron 1]”, the “Average percent reduction” value is 52.62%. For the same substance, for the setting “25 ng mRNA:12.5 ng gRNA”, the “Secreted PCSK9” value turned out to be 50.96 ng/mL and the “Percent reduction in PCSK9 secretion” value was 28.47%. For the same substance, under “50 ng mRNA:25 ng gRNA”, the “Secreted PCSK9” value came to 19.1 ng/mL and the “Percent reduction in PCSK9 secretion” value was 76.78%.
As to “GUGGGCAGCGAGGAGUCCAC (listed as RNA, chemistry not given here) [spacer 6.144, Promoter]”, the “Average percent reduction” value worked out at 65.41%. Further, for the setting “25 ng mRNA:12.5 ng gRNA”, the “Secreted PCSK9” value is recorded as 29 ng/mL and the “Percent reduction in PCSK9 secretion” value is reported as 59.29%. Also, where the note is “50 ng mRNA:25 ng gRNA”, the “Secreted PCSK9” value came to 23.42 ng/mL and the “Percent reduction in PCSK9 secretion” value was 71.53%.
For “GUGUUUCCUGGGUCCACCUU (listed as RNA, chemistry not given here) [spacer 6.147, Promoter]” the same measures were 41.15%, 37.43 ng/mL, 47.46%, 53.6 ng/mL and 34.85%.
For “GUUAAUGUUUAAUCAGAUAG (listed as RNA, chemistry not given here) [spacer 6.153, Promoter]”, the “Average percent reduction” value amounted to 5.27%. Moreover, for the setting “25 ng mRNA:12.5 ng gRNA”, the “Secreted PCSK9” value is 86.58 ng/mL and the “Percent reduction in PCSK9 secretion” value was determined as 21.52%. Where the note is “50 ng mRNA:25 ng gRNA”, the “Secreted PCSK9” value was 73.23 ng/mL and the “Percent reduction in PCSK9 secretion” value came out at 10.99%.
On to “Non-targeting (guide CGAGACGTAATTACGTCTCG; chemistry not given here)”, for which the “Average percent reduction” value is given as 0%. In addition, for the setting “25 ng mRNA:12.5 ng gRNA”, the “Secreted PCSK9” value came out at 71.24 ng/mL and the “Percent reduction in PCSK9 secretion” value came out at 0%. For the setting “50 ng mRNA:25 ng gRNA”, the “Secreted PCSK9” value was 82.28 ng/mL and the “Percent reduction in PCSK9 secretion” value was determined as 0%.
In the case of “TG-06-002 (guide ACCGCUGCGCCAAGGUGCGG; listed as RNA, chemistry not given here)”, the “Average percent reduction” value was determined as 8.16%. For the same substance, under “25 ng mRNA:12.5 ng gRNA”, the “Secreted PCSK9” value is reported as 83.15 ng/mL and the “Percent reduction in PCSK9 secretion” value is on record as 16.71%. In addition, under “50 ng mRNA:25 ng gRNA”, the “Secreted PCSK9” value is 81.95 ng/mL and the “Percent reduction in PCSK9 secretion” value is 0.4%.
The matching figures for “TG-06-249 (guide AAACCAAAUCGGAACCCACU; listed as RNA, chemistry not given here)”: 10.89%, 82.36 ng/mL, 15.61%, 87.36 ng/mL and 6.18%.
As for “TG-06-250 (guide GAUUUGGUUUGGAAAACAUG; listed as RNA, chemistry not given here)”, the “Average percent reduction” value is listed as 9.26%. Further, for the setting “25 ng mRNA:12.5 ng gRNA”, the “Secreted PCSK9” value was 80.42 ng/mL and the “Percent reduction in PCSK9 secretion” value is given as 12.87%. Moreover, for the setting “50 ng mRNA:25 ng gRNA”, the “Secreted PCSK9” value is given as 86.92 ng/mL and the “Percent reduction in PCSK9 secretion” value was found to be 5.64%.
For “TG-06-251 (guide CUCCAGGCCCUCCACCCUCC; listed as RNA, chemistry not given here)” the same measures were 46.32%, 44.62 ng/mL, 37.37%, 36.8 ng/mL and 55.28%.
For “TG-06-342 (guide AAUUACAGGCAACAGGAAGG; listed as RNA, chemistry not given here)” the same measures were 15.87%, 75.23 ng/mL, 5.6%, 51.55 ng/mL and 37.34%.
For “TG-06-343 (guide CCCCAUGUAAGAGAGGAAGU; listed as RNA, chemistry not given here)” the same measures were 8.82%, 75.55 ng/mL, 6.04%, 62.8 ng/mL and 23.67%.
In the case of “TG-06-344 (guide CAGUUUCUGCCUCGCCGCGG; listed as RNA, chemistry not given here)”, the “Average percent reduction” value came to 3.64%. Besides, where the note is “25 ng mRNA:12.5 ng gRNA”, the “Secreted PCSK9” value worked out at 76.43 ng/mL and the “Percent reduction in PCSK9 secretion” value is reported as 7.28%. For the same substance, under “50 ng mRNA:25 ng gRNA”, the “Secreted PCSK9” value stood at 82.29 ng/mL and the “Percent reduction in PCSK9 secretion” value is 0.01%.
The matching figures for “TG-06-345 (guide GCCUCGCCGCGGCACAGGUG; listed as RNA, chemistry not given here)”: 9.49%, 85.68 ng/mL, 20.26%, 81.22 ng/mL and 1.28%.
For “TG-06-346 (guide CCCACCUGUGCCGCGGCGAG; listed as RNA, chemistry not given here)” the same measures were 4.09%, 81.63 ng/mL, 14.58%, 77.02 ng/mL and 6.39%.
As for “TG-06-347 (guide CUCCUUCACCCACCUGUGCC; listed as RNA, chemistry not given here)”, the “Average percent reduction” value stood at 47.49%. Besides, under “25 ng mRNA:12.5 ng gRNA”, the “Secreted PCSK9” value turned out to be 51.83 ng/mL and the “Percent reduction in PCSK9 secretion” value was 27.24%. Moreover, where the note is “50 ng mRNA:25 ng gRNA”, the “Secreted PCSK9” value turned out to be 26.55 ng/mL and the “Percent reduction in PCSK9 secretion” value is recorded as 67.73%.
